The values below come from patent publication US8354387B2, “Methods and compositions for delivering siRNA into mammalian cells” (Centre National de la Recherche Scientifique, priority 2004, dated 2013).

The test system of one test is GAPDH. Briefly: GAPDH protein levels by Western blotting after siRNA transfection. The note with it: for reduction of GAPDH protein levels: Hs68, 30 hrs post transfection. Type of test: cell-based, human. On the procedure: (§1) FIG. 4: MPG-mediated delivery of siRNA induces a robust biological response. A/ MPG mediated delivery of siRNA targeting luciferase gene. MPG/siRNA or MPG^ΔNLS/DNA complexes were formed in DMEM at a charge ratio 10:1 and incubated for 30 min at 37° C., then overlaid onto Cos-7 or HeLa cells grown to 60% confluence and previously transfected with the pRL-SV40 plasmid (Promega) encoding the reporter gene luciferase under control of an SV40 promoter. After 30 min incubation at 37° C., 1 ml of fresh DMEM supplemented with 10% fetal calf serum was added onto the cells. Luciferase activity was measured 48 hrs after transfection. Transfections were also performed with Oligofectamine™ as a standard. Control experiments were performed with either naked siRNA or using a mismatch siRNA (dashed bars). B/ MPG-mediated delivery of siRNA targeting GAPDH gene: Western blot analysis. Different concentrations of siRNA (25, 50, 100 nM) were transfected with either MPG or MPG^ΔNLS and the levels of GAPDH protein were analyzed by Western blotting 30 hrs post transfection. Actin was used as a control to normalize protein loading. C/ MPG-mediated delivery of siRNA targeting GAPDH gene: Northern blot analysis. The kinetics of siRNA (50 nM)-induced degradation of GAPDH mRNA following transfection with either MPG or MPG^ΔNLS were analyzed by Northern blotting. Actin was used as a control to normalize mRNA levels in each sample. […]
(§2) To further understand the impact of the NLS in MPG, we examined the biological response of an siRNA targeting the GAPDH gene following transfection into human fibroblasts (Hs68). […] Different concentrations of siRNA (25, 50, 100 nM) were transfected with either MPG or MPG^ΔNLS and the levels of GAPDH protein were analyzed by Western blotting 30 hrs post transfection. […] The kinetics of siRNA-induced degradation of GAPDH mRNA following transfection with either MPG or MPG^ΔNLS were analyzed by Northern blotting. […]
On the technique in general: In western blotting, separated proteins are transferred to a membrane and probed.

The next test relates to GAPDH mRNA. Briefly: Kinetics of GAPDH mRNA degradation by Northern blotting. The format is cell-based, human. The note with it: 50 nM siRNA. The procedure:
as §1, with “C/ MPG-mediated delivery of siRNA targeting GAPDH gene: Northern blot analysis.” left out, “blotting.” for “blotting. Actin was used as a control to normalize mRNA levels in each sample.”
Hs68 or HeLa cells (5×10^6 cells) incubated with complexes were collected and total RNAs were isolated from cells using TriReagent™ (Sigma, Saint Louis) according to the manufacturer's recommendations. […] Signals were detected by Phosphorimaging (Molecular Dynamics) and quantified using ImageQuant software.
as §2

For test [1], the system named is human breast cancer cell line MCF-7. Briefly: Proliferation of MCF-7 cancer cells. The note with it: controls, MCF-7, 8 days. The format is cell-based. The procedure:
FIG. 7: Cyclin-B1 siRNA inhibits tumour growth. Exponentially MCF-7 growing cells (1-3 10^4) were incubated with different concentrations (10 nM, 50 nM, 100 nM) of siRNA or mismatched siRNA complexed or not with MPG (molecular ratio 1:10) and cell proliferation was assessed 8 days post incubation.
Cell culture, MPG mediated transfection. Adherent fibroblastic Hs68 (ATCC no CRL-1635), 293 (ATCC no CRL-1573), HeLa (ATCC no CCL-2) and MCF-7 (ATCC no HTB-22) cell lines were cultured in Dulbecco's Modified Eagle's Medium supplemented with […] glutamine, 1% antibiotics (streptomycin 10,000 μg/ml, penicillin, 10,000 IU/ml) and 10% (w/v) fetal calf serum (FCS), at 37° C. in a humidified atmosphere containing 5% CO2. For MPG-mediated delivery of siRNA, complexes were formed by incubation of different concentrations of siRNA from 10 nM to 1 μM with MPG at a molecular ratio of 1:10, respectively, in 500 μl of DMEM for 30 min at 37° C. Cells grown to 40 to 60% confluence were then overlaid with preformed complexes. After 30 min incubation at 37° C., 1 ml of fresh DMEM supplemented with 10% fetal calf serum was added directly to the cells, without removing the overlay of siRNA/MPG complexes, and cells were returned to the incubator. Different concentrations of siRNA or phosphorothioate oligonucleotide were transfected with cationic lipids, Lipofectamine or Oligofectamine (Invitrogen, Carlsbad, US), according to the guidelines of the manufacturer.
As delivery of siRNA directed against cyclin B1 promotes efficient downregulation of both cyclin B1 mRNA and protein levels, it was looked for to what extent this might affect proliferation of cancer cells. The effect of siRNA was investigated on the human breast cancer cell line MCF-7. Exponentially growing cells (1-3 10^4) were incubated with different concentrations (10 nM, 50 nM, 100 nM) of siRNA or mismatched siRNA complexed or not with MPG (molecular ratio 1:10) and cell proliferation was assessed 8 days post incubation (FIG. 7).

The test system of another test is mammalian cells. The note with it: single- and double-stranded oligonucleotides; cited from earlier work.

As to “GALFLGFLGAAGSTMGAWSQPKSKRKV (carrier peptide) [MPG^ΔNLS, MPG variant with single mutation of the second lysine residue in the NLS motif to serine]”, the “reduction of GAPDH protein levels” value in the test with GAPDH (25 nM siRNA) is 80%. In addition, in the test with GAPDH (GAPDH siRNA, Hs68), the “efficiency relative to wild-type MPG” value was “at least 2 fold”. In the test on GAPDH mRNA, the “time after which significant/robust reduction of GAPDH mRNA is seen” value amounted to 5 h.
For “GALFLGFLGAAGSTMGAWSQPKKKRKV (carrier peptide) [MPG, bipartite amphipathic peptide derived from fusion peptide domain of HIV-1 gp41 and NLS of SV40 large T antigen]”, the “effect on cell proliferation” value in test [1] is listed as “neither free siRNA or scrambled molecules, or the peptide carrier alone affected cell proliferation”. For the same sequence, the “reduction of GAPDH protein levels” value with GAPDH (100 nM siRNA) turned out to be 60%. For the same sequence, in the test with GAPDH mRNA, the “time after which reduction of GAPDH mRNA is initiated” value was 10 h and the “time after which significant/robust reduction of GAPDH mRNA is seen” value amounted to 20 h. Further, in the test with mammalian cells, the “time to deliver oligonucleotides into mammalian cells” value is on record as below 1 h.
